{"source": "patent US7173151B2", "about": "“Cycloalkyl-substituted alkanoic acid derivatives, processes for their preparation and their use as pharmaceuticals” (Sanofi-AventisDeutschand GmbH, priority 2003, dated 2007)", "target": "T1, GR-GAL4-humanPPARalpha-LBD (Homo sapiens, UniProt Q07869)", "T1 construct": "amino acids S167–Y468; expressed in transfected cells; host or cells: HEK cells, stably transfected (pcDNA3, CMV promoter)", "T1 sequence (Q07869 167-468)": "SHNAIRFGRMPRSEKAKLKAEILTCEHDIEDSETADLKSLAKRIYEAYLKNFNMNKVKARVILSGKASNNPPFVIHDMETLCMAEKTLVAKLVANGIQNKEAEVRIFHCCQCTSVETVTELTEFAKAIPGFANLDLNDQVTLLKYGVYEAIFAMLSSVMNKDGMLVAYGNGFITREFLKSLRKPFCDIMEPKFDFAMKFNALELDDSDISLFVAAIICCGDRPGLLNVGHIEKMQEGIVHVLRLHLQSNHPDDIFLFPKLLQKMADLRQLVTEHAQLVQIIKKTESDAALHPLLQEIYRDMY", "assay": "Cellular PPARalpha assay (luciferase reporter, stably transfected HEK cell line)", "format": "cell-based", "experimental": "Determination of EC50 Values of PPAR Agonists in the Cellular PPARalpha Assay\nThe potency of substances which bind to human PPARalpha and activate in an agonistic manner is analyzed using a stably transfected HEK cell line (HEK=human embryo kidney) which is referred to here as PPARalpha reporter cell line. It contains two genetic elements, a luciferase reporter element (pdeltaM-GAL4-Luc-Zeo) and a PPARalpha fusion protein (GR-GAL4-humanPPARalpha-LBD) which mediates expression of the luciferase reporter element depending on a PPARalpha ligand. The stably and constitutively expressed fusion protein GR-GAL4-humanPPARalpha-LBD binds in the cell nucleus of the PPARalpha reporter cell line via the GAL4 protein portion to the GAL4 DNA binding motifs 5′-upstream of the luciferase reporter element which is integrated in the genome of the cell line. There is only little expression of the luciferase reporter gene without addition of a PPARalpha ligand if fatty acid-depleted fetal calf serum (cs-FCS) is used in the assay. PPARalpha ligands bind and activate the PPARalpha fusion protein and thereby bring about expression of the luciferase reporter gene. The luciferase which is formed can be detected by means of chemiluminescence via an appropriate substrate.\nThe PPARalpha reporter cell line was prepared in 2 stages. Firstly, the luciferase reporter element was constructed and stably transfected into HEK cells. For this purpose, five binding sites of the yeast transcription factor GAL4 (each 5′-CGGAGTACTGTCCTCCGAG-3′) (SEQ ID No. 1) were cloned in 5′-upstream of a 68 bp-long minimal MMTV promoter (Genbank Accession #V01175). The minimal MMTV promoter section contains a CCAAT box and a TATA element in order to enable efficient transcription by RNA polymerase II. The cloning and sequencing of the GAL4-MMTV construct took place in analogy to the description of Sambrook J. et. al. (Molecular cloning, Cold Spring Harbor Laboratory Press, 1989). Then the complete Photinus pyralis gene (Genbank Accession #M15077) was cloned in 3′-downstream of the GAL4-MMTV element. After sequencing, the luceriferase reporter element consisting of five GAL4 binding sites, MMTV promoter and luciferase gene was recloned into a plasmid which confers zeocin resistance in order to obtain the plasmid pdeltaM-GAL4-Luc-Zeo. This vector was transfected into HEK cells in accordance with the statements in Ausubel, F. M. et al. (Current protocols in molecular biology, Vol. 1–3, John Wiley & Sons, Inc., 1995).\nIn a second step, the PPARalpha fusion protein (GR-GAL4-humanPPARalpha-LBD) was introduced into the stable cell clone described. For this purpose, initially the cDNA coding for the N-terminal 76 amino acids of the glucocorticoid receptor (Genbank Accession #P04150) was linked to the cDNA section coding for amino acids 1–147 of the yeast transcription factor GAL4 (Genbank Accession #P04386). The cDNA of the ligand-binding domain of the human PPARalpha receptor (amino acids S167–Y468; Genbank Accession #S74349) was cloned in at the 3′-end of this GR-GAL4 construct. The fusion construct prepared in this way (GR-GAL4-humanPPARalpha-LBD) was recloned into the plasmid pcDNA3 (from Invitrogen) in order to enable constitutive expression therein by the cytomegalovirus promoter. This plasmid was linearized with a restriction endonuclease and stably transfected into the previously described cell clone containing the luciferase reporter element. The finished PPARalpha reporter cell line which contains a luciferase reporter element and constitutively expresses the PPARalpha fusion protein (GR-GAL4-human PPARalpha-LBD) was isolated by selection with zeocin (0.5 mg/ml) and G418 (0.5 mg/ml).\nThe activity of PPARalpha agonists is determined in a 3-day assay which is described below: […]", "data": [{"smiles": "CCCCCCCN(CCO[C@@H]1CCC[C@H](CCC(C(=O)O)C(C)C)C1)C(=O)NCCCC", "note": "(relative stereo) [Example 5, 2-(2-{cis-3-[2-(3-butyl-1-heptylureido)ethoxy]cyclohexyl}ethyl)-3-methylbutyric acid]", "values": [{"measurement": "EC50", "value": 0.38, "unit": "nM"}]}, {"smiles": "CCCCCCCN(CCOC1CCCC(CCC(C)(C)C(=O)O)C1)C(=O)NCCCC", "note": "(racemic) [Example 9, 4-{cis-3-[2-(3-butyl-1-heptylureido)ethoxy]cyclohexyl)-2,2-dimethylbutyric acid]", "values": [{"measurement": "EC50", "value": 8.8, "unit": "nM"}]}, {"smiles": "CCC(CCC1CCCC(OCCN(Cc2ccc(C)cc2)C(=O)NC2CCCCC2)C1)C(=O)O", "note": "(racemic) [Example 1, 4-(cis-3-{2-[3-cyclohexyl-1-(4-methylbenzyl)ureido]ethoxy}cyclohexyl)-2-ethylbutyric acid]", "values": [{"measurement": "EC50", "value": 1.1, "unit": "nM"}]}, {"smiles": "CCCCNC(=O)N(CCO[C@@H]1CCC[C@H](CCC(C)(C)C(=O)O)C1)Cc1ccc(C)cc1", "note": "(relative stereo) [Example 10, 4-(cis-3-{2-[3-butyl-1-(4-methylbenzyl)ureido]ethoxy}cyclohexyl)-2,2-dimethylbutyric acid]", "values": [{"measurement": "EC50", "value": 74, "unit": "nM"}]}, {"smiles": "CCCCCCCN(CCO[C@@H]1CCC[C@H](CCC(CC)C(=O)O)C1)C(=O)NC1CCCCC1", "note": "(relative stereo) [Example 3, 4-{cis-3-[2-(3-cyclohexyl-1-heptylureido)ethoxy]cyclohexyl}-2-ethylbutyric acid]", "values": [{"measurement": "EC50", "value": 0.56, "unit": "nM"}]}, {"smiles": "CCCCCCCN(CCO[C@@H]1CCC[C@H](CCC(C)(C)C(=O)O)C1)C(=O)NC1CCCCC1", "note": "(racemic) [Example 11, 4-{cis-3-[2-(3-cyclohexyl-1-heptylureido)ethoxy]cyclohexyl}-2,2-dimethylbutyrate]", "values": [{"measurement": "EC50", "value": 28, "unit": "nM"}]}, {"smiles": "CCCCCCCN(CCO[C@@H]1CCC[C@H](CCC(CC)C(=O)O)C1)C(=O)NCCCC", "note": "(relative stereo) [Example 2, 4-{cis-3-[2-(3-butyl-1-heptylureido)ethoxy]cyclohexyl}-2-ethylbutyric acid]", "values": [{"measurement": "EC50", "value": 1, "unit": "nM"}]}]}
